Data taken from patent US8530426B2, “Cosmetic or dermopharmaceutical composition comprising at least one UDP glucuronosyl transferase (UGT) enzymes inducer” (Sederma SAS, priority 2004, dated 2013).

Tests used:
Human keratinocytes = assay: PGE2 release post-UVB irradiation, keratinocytes (ELISA); format: cell-based; conditions: for Change in PGE2 release post-UVB irradiation, keratinocytes: UVB 30 mJ/cm2, 24 hours
Method: (§1) Human keratinocytes and fibroblasts were cultured in an appropriate medium in the presence of various concentrations of chrysin for 24 hours. The cells were then transferred to a product-free medium and exposed to a pro-inflammatory dose of UVB radiation at a dosage of 35 mJ/cm2 for fibroblasts and 30 mJ/cm2 for keratinocytes. Following irradiation, the cells were then post-incubated either in medium alone or in medium containing various concentrations of chrysin vs. a positive control (acetylsalicylic acid) for 24 hours. PGE2 release into the culture medium after 24 hours was determined using an ELISA method.

fibroblasts = assay: PGE2 release post-UVB irradiation, fibroblasts (ELISA); format: cell-based, Human; conditions: for Change in PGE2 release post-UVB irradiation, fibroblasts: UVB 35 mJ/cm2, 24 hours
Method: as §1

UGT1A1 mRNA = assay: Induction of UGT1A1 mRNA by chrysin, RT-PCR in hepG2 cells; format: cell-based, Human; conditions: 3 days
Method: Human hepG2 cells were cultured in an appropriate medium (Williams medium) in the presence or absence of the inductor, chrysin, for 3 days At the end of that period, cell lysis was induced, mRNA extracted and RT-PCR conducted
Quantification of UGT1A1 mRNA: The study was conducted after 3 days of incubation in the presence of chrysin. The values, shown in Table 1, obtained were normalized on the GADPH internal standard and then expressed as percentages relative to the reference.

[1] = positive control, concentration not given

Structure (SMILES)	Change in PGE2 release post-UVB irradiation, keratinocytes (Human keratinocytes; [1]) [%]	inhibition of PGE2, keratinocytes (Human keratinocytes; [1])	Change in PGE2 release post-UVB irradiation, fibroblasts (fibroblasts; [1]) [%]	inhibition of PGE2, fibroblasts (fibroblasts; [1])	UGT1A1 Induction (UGT1A1 mRNA; chrysin 7.8 μM)	UGT1A1 mRNA, normalized on GADPH, percentage relative to the reference (UGT1A1 mRNA; chrysin 7.8 μM) [%]	UGT1A1 Induction (UGT1A1 mRNA; chrysin 11.8 μM)	UGT1A1 mRNA, normalized on GADPH, percentage relative to the reference (UGT1A1 mRNA; chrysin 11.8 μM) [%]	increase in UGT1A1 mRNA (in words) (UGT1A1 mRNA; dose effect)	Change in PGE2 release post-UVB irradiation, keratinocytes (Human keratinocytes; 2 μM) [%]	Change in PGE2 release post-UVB irradiation, keratinocytes (Human keratinocytes; 3.9 μM) [%]	Change in PGE2 release post-UVB irradiation, keratinocytes (Human keratinocytes; 7.8 μM) [%]	Change in PGE2 release post-UVB irradiation, keratinocytes (Human keratinocytes; 11.8 μM) [%]	inhibition of keratinocytic PGE2 (Human keratinocytes; maximum over the chrysin concentrations, without a dose effect)	Change in PGE2 release post-UVB irradiation, fibroblasts (fibroblasts; 2 μM) [%]	Change in PGE2 release post-UVB irradiation, fibroblasts (fibroblasts; 3.9 μM) [%]	Change in PGE2 release post-UVB irradiation, fibroblasts (fibroblasts; 7.8 μM) [%]	Change in PGE2 release post-UVB irradiation, fibroblasts (fibroblasts; 11.8 μM) [%]
CC(=O)Oc1ccccc1C(=O)O [acetylsalicylic acid, reference compound]	−92	greater than 90%	−95	greater than 90%	–	–	–	–	–	–	–	–	–	–	–	–	–	–
O=c1cc(-c2ccccc2)oc2cc(O)cc(O)c12 [Chrysin, 5,7-dihydroxyflavone]	–	–	–	–	×2.5	247	×6	600	very marked increase	−75	−84	−85	−86	up to 85%	−76	−85	−89	−92
